Assay results reported in US7732449B2, “Inhibitors of cathepsin S” (IRM LLC, priority 2003, dated 2010).
pKi: −log10 of the molar value. Where two headings read alike, the source gives them in different places.

What was measured:
Format in all cases: biochemical
Cathepsin L = Cathepsin L (Homo sapiens, UniProt P07711); experiment: Cathepsin L inhibition, fluorogenic peptide substrate kinetic assay (selectivity); conditions: ratio of cathepsin L inhibition constant to cathepsin S inhibition constant
Cathepsin S = Cathepsin S (Homo sapiens, UniProt P25774); experiment: Cathepsin S inhibition, fluorogenic peptide substrate kinetic assay;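 further: cleavage rate of a coumarin-labelled peptide substrate (50 µM) read as fluorescence increase at Ex 380 nm and Em 450 nm, relative to inhibitor-free control reactions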
Cathepsin K = target: T1, Cathepsin K (Homo sapiens, UniProt P43235); experiment: Cathepsin K inhibition, fluorogenic peptide substrate kinetic assay (selectivity); conditions: ratio of cathepsin K inhibition constant to cathepsin S inhibition constant
T1 sequence (P43235 115-329): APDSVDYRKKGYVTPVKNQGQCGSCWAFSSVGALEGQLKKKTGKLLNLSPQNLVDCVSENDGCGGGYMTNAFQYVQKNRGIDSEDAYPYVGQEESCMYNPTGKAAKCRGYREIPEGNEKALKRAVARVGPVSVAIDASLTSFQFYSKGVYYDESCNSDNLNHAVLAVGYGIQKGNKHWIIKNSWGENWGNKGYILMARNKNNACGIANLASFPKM

Cathepsin B = Cathepsin B (Homo sapiens, UniProt P07858); experiment: Cathepsin B inhibition, fluorogenic peptide substrate kinetic assay (selectivity); conditions: ratio of cathepsin B inhibition constant to cathepsin S inhibition constant;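 further: value is the cathepsin B inhibition constant divided by the cathepsin S one, each from kinetic fluorescence readings (ex 380 nm, em 450 nm) of a 10 µM coumarin peptide substrate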
[1] = Cathepsin S inhibition constant, pH5.5, 20 minutes preincubation at room temperature, read-out: Ki Cat. S

Sequence of Cathepsin S (P25774 115-331, species assumed): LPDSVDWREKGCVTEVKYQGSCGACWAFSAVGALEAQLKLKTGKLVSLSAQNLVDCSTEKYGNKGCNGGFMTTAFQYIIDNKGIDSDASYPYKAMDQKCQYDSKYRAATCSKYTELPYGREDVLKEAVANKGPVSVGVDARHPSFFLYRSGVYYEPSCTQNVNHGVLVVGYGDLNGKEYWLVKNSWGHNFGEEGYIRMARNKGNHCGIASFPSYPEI
Sequence of Cathepsin L (P07711 114-333, species assumed): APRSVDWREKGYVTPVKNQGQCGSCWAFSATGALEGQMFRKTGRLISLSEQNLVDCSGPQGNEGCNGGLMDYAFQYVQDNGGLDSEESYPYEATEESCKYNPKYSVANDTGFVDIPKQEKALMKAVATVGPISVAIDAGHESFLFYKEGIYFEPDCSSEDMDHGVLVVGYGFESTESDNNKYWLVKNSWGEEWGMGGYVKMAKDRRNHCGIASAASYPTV

Row | Compound | Selectivity for Cat. S over Cat. L (Cathepsin L) | pKi (Cathepsin S; [1]) | Selectivity for Cat. S over Cat. K (Cathepsin K) | Selectivity for Cat. S over Cat. B (Cathepsin B) | pKi (Cathepsin S)
1 | C[C@@H](CNc1ccc(OC(F)(F)F)cc1)NC(=O)[C@H](CS(=O)(=O)Cc1ccccc1)NC(=O)N1CCOCC1 [Example 18, Morpholine-4-carboxylic acid {1-(R)-[1-(S)-methyl-2-(4-trifluoromethoxy-phenylamino)-ethylcarbamoyl]-2-phenylmethanesulfonyl-ethyl}-amide] | ++ (++, >100) | > 7.00 | +++ (+++, >1000) | ++ (++, >100) | –
2 | COc1ccc(NCCNC(=O)[C@@H](CC(=O)N2CCOCC2)CC2CCCCC2)cc1 [Example 19, (R)-2-Cyclohexylmethyl-N-[2-(4-methoxy-phenylamino)-ethyl]-4-morpholin-4-yl-4-oxo-butyramide] | ++ (++, >100) | 6.00 to 7.00 | ++ (++, >100) | ++ (++, >100) | –
3 | CCC[C@@H](CNc1ccc(OC(F)(F)F)cc1)NC(=O)[C@@H](CC(=O)N1CCOCC1)CC1CCCCC1 [Example 20, 2-(R)-Cyclohexylmethyl-4-morpholin-4-yl-4-oxo-N-{1-(S)-[(4-trifluoromethoxy-phenylamino)-methyl]-butyl}-butyramide] | + (+, >10) | – | + (+, >10) | +++ (+++, >1000) | > 7.00
4 | C[C@@H](CNc1ccc(OC(F)(F)F)cc1)NC(=O)[C@H](CCC1CCCCC1)CC(=O)N1CCOCC1 [Example 21, 2-(R)-(2-Cyclohexyl-ethyl)-N-[1-(S)-methyl-2-(4-trifluoromethoxy-phenylamino)-ethyl]-4-morpholin-4-yl-4-oxo-butyramide] | +++ (+++, >1000) | – | ++ (++, >100) | +++ (+++, >1000) | > 7.00
5 | CC[C@@H](CNc1ccc(OC(F)(F)F)cc1)NC(=O)[C@@H](CC(=O)N1CCOCC1)CC1CCCCC1 [Example 22, 2-(R)-Cyclohexylmethyl-4-morpholin-4-yl-4-oxo-N-{1-(S)-[(4-trifluoromethoxy-phenylamino)-methyl]-propyl}-butyramide] | + (+, >10) | – | + (+, >10) | +++ (+++, >1000) | > 7.00
6 | C[C@@H](CNc1ccc(OC(F)(F)F)cc1)NC(=O)[C@H](CCC(C)(C)C)CC(=O)N1CCOCC1 [Example 25, 5,5-Dimethyl-2-(R)-(2-morpholin-4-yl-2-oxo-ethyl)-hexanoic acid [1-(S)-methyl-2-(4-trifluoromethoxy-phenylamino)-ethyl]-amide] | ++ (++, >100) | – | ++ (++, >100) | ++ (++, >100) | 6.00 to 7.00
7 | CCC[C@@H](CNc1ccc(OC(F)(F)F)cc1)NC(=O)[C@@H](CC(=O)N1CCOCC1)CC1CCCC1 [Example 27, 2-(R)-Cyclopentylmethyl-4-morpholin-4-yl-4-oxo-N-{1-(S)-[(4-trifluoromethoxy-phenylamino)-methyl]-butyl}-butyramide] | ++ (++, >100) | – | + (+, >10) | +++ (+++, >1000) | > 7.00
8 | CC(C)[C@@H](CNc1ccc(OC(F)(F)F)cc1)NC(=O)[C@@H](CC(=O)N1CCOCC1)c1ccccc1 [Example 34, N-{2-Methyl-1-(S)-[(4-trifluoromethoxy-phenylamino)-methyl]-propyl}-4-morpholin-4-yl-4-oxo-2-(S)-phenyl-butyramide] | + (+, >10) | – | + (+, >10) | +++ (+++, >1000) | > 7.00
9 | CC(C)[C@@H](CNc1ccc(OC(F)(F)F)cc1)NC(=O)[C@@H](CC(=O)N1CCOCC1)C1CCCCC1 [Example 35, 2-(S)-Cyclohexyl-N-{2-methyl-1-(S)-[(4-trifluoromethoxy-phenylamino)-methyl]-propyl}-4-morpholin-4-yl-4-oxo-butyramide] | ++ (++, >100) | > 7.00 | + (+, >10) | +++ (+++, >1000) | –
10 | CC[C@@H](CNc1ccc(OC(F)(F)F)cc1)NC(=O)[C@H](CCC1CCCC1)CC(=O)N1CCOCC1 [Example 36, 2-(R)-(2-Cyclopentyl-ethyl)-4-morpholin-4-yl-4-oxo-N-{1-(S)-[(4-trifluoromethoxy-phenylamino)-methyl]-propyl}-butyramide] | + (+, >10) | > 7.00 | ++ (++, >100) | +++ (+++, >1000) | –
11 | O=C(N[C@@H](CCc1ccccc1)CNc1ccc(OC(F)(F)F)cc1)[C@H](CCC1CCCC1)CC(=O)N1CCOCC1 [Example 37, 2-(R)-(2-Cyclopentyl-ethyl)-4-morpholin-4-yl-4-oxo-N-{3-phenyl-1-(S)-[(4-trifluoromethoxy-phenylamino)-methyl]-propyl}-butyramide] | + (+, >10) | – | ++ (++, >100) | ++ (++, >100) | > 7.00
12 | CCC[C@@H](CNc1ccc(OC(F)(F)F)cc1)NC(=O)[C@@H](CC(=O)N1CCOCC1)c1ccccc1 [Example 39, 4-Morpholin-4-yl-4-oxo-2-(S)-phenyl-N-{1-(S)-[(4-trifluoromethoxy-phenylamino)-methyl]-butyl}-butyramide] | ++ (++, >100) | > 7.00 | + (+, >10) | +++ (+++, >1000) | –
13 | CC(C)[C@@H](CNc1ccc(OC(F)(F)F)cc1)NC(=O)[C@@H](CC(=O)N1CCOCC1)c1ccc(F)cc1 [Example 41, 2-(S)-(4-Fluoro-phenyl)-N-{2-methyl-1-(S)-[(4-trifluoromethoxy-phenylamino)-methyl]-propyl}-4-morpholin-4-yl-4-oxo-butyramide] | ++ (++, >100) | – | + (+, >10) | +++ (+++, >1000) | > 7.00
14 | CC(C)[C@@H](CNc1ccc(OC(F)(F)F)cc1)NC(=O)[C@@H](CC(=O)N1CCOCC1)c1ccc(Cl)cc1 [Example 42, 2-(S)-(4-Chloro-phenyl)-N-{2-methyl-1-(S)-[(4-trifluoromethoxy-phenylamino)-methyl]-propyl}-4-morpholin-4-yl-4-oxo-butyramide] | ++ (++, >100) | – | +++ (+++, >1000) | +++ (+++, >1000) | > 7.00
15 | CC(C)[C@@H](CNc1ccc(OC(F)(F)F)cc1)NC(=O)[C@H](CC(=O)N1CCOCC1)c1ccc(Cl)cc1 [Example 43, 2-(R)-(4-Chloro-phenyl)-N-{2-methyl-1-(S)-[(4-trifluoromethoxy-phenylamino)-methyl]-propyl}-4-morpholin-4-yl-4-oxo-butyramide] | ++ (++, >100) | – | ++ (++, >100) | ++ (++, >100) | 6.00 to 7.00
16 | O=C(N[C@H](CNc1ccc(OC(F)(F)F)cc1)c1ccccc1)[C@@H](CC(=O)N1CCOCC1)CC1CCCCC1 [Example 45, 2-(R)-Cyclohexylmethyl-4-morpholin-4-yl-4-oxo-N-[1-(S)-phenyl-2-(4-trifluoromethoxy-phenylamino)-ethyl]-butyramide] | ++ (++, >100) | – | ++ (++, >100) | +++ (+++, >1000) | > 7.00
17 | O=C(N[C@H](CNc1ccc(OC(F)(F)F)cc1)c1ccccc1)[C@H](CCC1CCCC1)CC(=O)N1CCOCC1 [Example 46, 2-(R)-(2-Cyclopentyl-ethyl)-4-morpholin-4-yl-4-oxo-N-[1-(S)-phenyl-2-(4-trifluoromethoxy-phenylamino)-ethyl]-butyramide] | ++ (++, >100) | > 7.00 | +++ (+++, >1000) | +++ (+++, >1000) | –
18 | O=C(N[C@H](CNc1ccc(OC(F)(F)F)cc1)c1ccccc1)[C@@H](CC(=O)N1CCOCC1)c1ccc(Cl)cc1 [Example 48, 2-(S)-(4-Chloro-phenyl)-4-morpholin-4-yl-4-oxo-N-[1-(S)-phenyl-2-(4-trifluoromethoxy-phenylamino)-ethyl]-butyramide] | ++ (++, >100) | 6.00 to 7.00 | + (+, >10) | ++ (++, >100) | –
19 | Cc1cc(NCCNC(=O)[C@H](CCC(C)(C)C)CC(=O)N2CCOCC2)no1 [Example 49, (R)-5,5-Dimethyl-2-(2-morpholin-4-yl-2-oxo-ethyl)-hexanoic acid [2-(5-methyl-isoxazol-3-ylamino)-ethyl]-amide] | + (+, >10) | 5.00 to 6.00 | + (+, >10) | + (+, >10) | –
20 | C[C@@H](CNc1ccc(OC(F)(F)F)cc1)NC(=O)[C@@H](CC(=O)N1CCSCC1)CC1CCCCC1 [Example 51, 2-(R)-Cyclohexylmethyl-N-[1-(S)-methyl-2-(4-trifluoromethoxy-phenylamino)-ethyl]-4-oxo-4-thiomorpholin-4-yl-butyramide] | + (+, >10) | > 7.00 | ++ (++, >100) | +++ (+++, >1000) | –
